US6573246B1, “Modified ether glyceroglycolipids” (The Liposome Company, Inc., priority 1995, dated 2003)

How the values were obtained:
[1] = tested on: OVCAR-3 cells (ovarian adenocarcinoma); experiment: growth inhibition of OVCAR-3 cells in culture; assay type: cell-based, human; settings: for IC50: Homo sapiens, OVCAR-3 ovarian cancer cell line, read-out: Gl50 (the source's name); for growth: increase in cell numbers relative to control wells (control = 100): OVCAR-3, 72 h
Procedure: (§1) Human epithelial cancer cell lines were grown from frozen stocks originally obtained from the ATCC, in media commonly used for growing these cells in culture. For example, A549 cells (non-small cell lung adenocarcinoma) were cultured in Ham's F-12 medium, T84 cells (colon carcinoma) were cultured in a 1:1 mixture of F-12 and DMEM while MCF-7 (breast adenocarcinoma) and A427 (large cell lung carcinoma) cells were cultured in DMEM. The media were supplemented with 10% fetal bovine serum, penicillin (50 U/ml), streptomycin (50 micogram/ml) and fungizone (0.5 microgram/ml). OVCAR-3 cells (ovarian adenocarcinoma) were cultured in RPMI 1640 medium supplemented with 20% FBS and 10 microgram/ml insulin.
(§2) Cells were subcultured into 24-well plates and the cell number was monitored daily. When the cells were in log phase, the media was replaced with one containing the required drug concentration, and the cells were incubated for 72 h. The increase in cell numbers relative to control wells (without any drug) was determined after the incubation. Stock solutions of the drugs ([…]) were prepared in ethanol and stored at −20 deg. C. Etherlipid solutions (30 micromolar) in the appropriate media were prepared fresh on the day of the experiment and serially diluted to give the required concentrations. The final concentration of ethanol in all wells was 0.1% (v/v).

[2] = tested on: MCF-7 (breast adenocarcinoma) cells; experiment: growth inhibition of MCF-7 cells in culture; assay type: cell-based, human; settings: MCF7; mean ± standard deviation; read-out: Gl50 (concentration of lipid required to inhibit the growth of fifty percent of the cells in culture)
Procedure: as §1, §2
(§3) Gl50 values are given as the mean ± standard deviation; the Gl50 value from each experiment “n” was generated from three individual wells on two separate plates (six total wells); n=1 for compounds 3-6; n=2 for most cell lines treated with compound 2 ^an=3; ^bn=2; ^cn=6; ^dn=8.

[3] = tested on: A549 cells (non-small cell lung adenocarcinoma); experiment: growth inhibition of A549 cells in culture; assay type: cell-based, human; settings: mean ± standard deviation, read-out: Gl50 (concentration of lipid required to inhibit the growth of fifty percent of the cells in culture)
Procedure: as §1, §2, §3

[4] = tested on: MCF-7/Adr (adriamycin-resistant) cells; experiment: growth inhibition of MCF7/adr cells in culture; assay type: cell-based, human; settings: mean ± standard deviation, read-out: Gl50 (concentration of lipid required to inhibit the growth of fifty percent of the cells in culture)
Procedure: (§4) The Gl50 values for edelfosine (1), 2′-deoxy-β-D-arabinopyranosyl (2), 2′-deoxy-α-D-arabinopyranosyl (3), 2-O-methyl-β-D-glucopyranosyl (4), 2′-O-methyl-β-D-mannopyranosyl (5) and α-D-mannopyransoyl (6) on A-549, MCF-7, Lewis Lung, MCF-7/Adr (adriamycin-resistant), P388, P-388/Adr, L1210 and L1210/vmdr cells were determined and are set forth below (see Table 4) as the concentration (micromolar) of lipid required to inhibit the growth of fifty percent of the cells in culture.
as §3

Lewis Lung cells = experiment: growth inhibition of Lewis Lung cells in culture; assay type: cell-based, murine; settings: mean ± standard deviation, read-out: Gl50 (concentration of lipid required to inhibit the growth of fifty percent of the cells in culture)
Procedure: as §4, §3

P388 cells = experiment: growth inhibition of P388 cells in culture; assay type: cell-based, murine; settings: mean ± standard deviation, read-out: Gl50 (concentration of lipid required to inhibit the growth of fifty percent of the cells in culture)
Procedure: as §4, §3

P-388/Adr cells = experiment: growth inhibition of P388/adr cells in culture; assay type: cell-based, murine; settings: mean ± standard deviation, read-out: Gl50 (concentration of lipid required to inhibit the growth of fifty percent of the cells in culture)
Procedure: as §4, §3

HT29 cells = experiment: growth inhibition of HT29 cells in culture; assay type: cell-based; settings: mean ± standard deviation, read-out: Gl50 (concentration of lipid required to inhibit the growth of fifty percent of the cells in culture)
L1210 cells = experiment: growth inhibition of L1210 cells in culture; assay type: cell-based; settings: mean ± standard deviation, read-out: Gl50 (concentration of lipid required to inhibit the growth of fifty percent of the cells in culture)
Procedure: as §4, §3

L1210/vmdr cells = experiment: growth inhibition of L1210/vmdr cells in culture; assay type: cell-based; settings: mean ± standard deviation, read-out: Gl50 (concentration of lipid required to inhibit the growth of fifty percent of the cells in culture)
Procedure: as §4, §3

CCCCCCCC/C=C\CCCCCCCCCCCCOP(=O)([O-])OCC[N+](C)(C)C [E, erucylphosphocholine]
IC50 [1]: > 30 µM
growth: increase in cell numbers relative to control wells (control = 100) ([1]; lipid concentration 5 μM): 104.0 ± 12.2
growth: increase in cell numbers relative to control wells (control = 100) ([1]; lipid concentration 10 μM): 102.3 ± 16.1
growth: increase in cell numbers relative to control wells (control = 100) ([1]; lipid concentration 15 μM): 98.6 ± 7.8
growth: increase in cell numbers relative to control wells (control = 100) ([1]; lipid concentration 20 μM): 90.2 ± 6.6
growth: increase in cell numbers relative to control wells (control = 100) ([1]; lipid concentration 30 μM): 60 ± 10.7

CCCCCCCCCCCCCCCCOC[C@H](CO[C@@H]1O[C@H](CO)[C@@H](O)[C@H](O)[C@H]1OC)OC [compound 4, 1-O-Hexadecyl-2-O-methyl-3-O-(2′-methyl-β-D-glucopyransoyl)-sn-glycerol]
IC50 [2]: 23.1 ± 0.64 µM
IC50 [3]: 18.3 ± 0.14 µM
IC50 [4]: 21.8 ± 0.63 µM
IC50 (Lewis Lung cells): 26 ± 0.71 µM
IC50 (P388 cells): 18.1 ± 1.13 µM
IC50 (P-388/Adr cells): 29.3 ± 5.66 µM

CCCCCCCCCCCCCCCCOP(=O)([O-])OCC[N+](C)(C)C [D, hexadecylphosphocholine]
IC50 [1]: > 30 µM
growth: increase in cell numbers relative to control wells (control = 100) ([1]; lipid concentration 5 μM): 93.8 ± 16.5
growth: increase in cell numbers relative to control wells (control = 100) ([1]; lipid concentration 10 μM): 90.3 ± 11.3
growth: increase in cell numbers relative to control wells (control = 100) ([1]; lipid concentration 15 μM): 67.4 ± 14.5
growth: increase in cell numbers relative to control wells (control = 100) ([1]; lipid concentration 20 μM): 62.3 ± 10.7
growth: increase in cell numbers relative to control wells (control = 100) ([1]; lipid concentration 30 μM): 67.2 ± 12.5

CCCCCCCCCCCCCCCCOC[C@H](CO[C@H]1O[C@H](CO)[C@@H](O)[C@H](O)[C@@H]1O)OC [compound 6, 1-O-Hexadecyl-2-O-methyl-3-O-(α-D-mannopyransoyl)-sn-glycerol]
IC50 [2]: 21.7 ± 0.57 µM
IC50 [3]: 18.1 ± 0.14 µM
IC50 [4]: 23.3 ± 0.71 µM
IC50 (HT29 cells): 23.2 ± 0.85 µM
IC50 (L1210 cells): 16.2 ± 0.99 µM
IC50 (L1210/vmdr cells): 18.9 µM
